These results are taken from patent publication US8796457B2, “Compound useful for the treatment of degenerative and inflammatory diseases” (Galapagos NV, priority 2009, dated 2014).

Assay [1] concerns JAK1-dependent pathway (IL-6 stimulated STAT1 phosphorylation, CD4+ cells) in human whole blood. The assay is described as follows: Whole blood assay, IL-6 stimulation, Phospho-STAT1 FACS. The format is cell-based. The procedure:
(§1) A flow cytometry analysis was also performed to establish compound selectivity for JAK1 over JAK2, ex vivo using human whole blood.
(§2) Remaining diluted Lyse/Fix buffer was discarded.
The stock solution was stored aliquoted at −80° C.
Control-treated samples received DMSO instead of compound.
(§3) Human blood was collected in heparinized tubes.

Assay [2] relates to JAK2-dependent pathway (GM-CSF stimulated STAT5 phosphorylation, CD14+ cells) in human whole blood. Description: Whole blood assay, GM-CSF stimulation, Phospho-STAT5 FACS. The assay is classed as cell-based. The conditions noted are these: mean of 3 healthy volunteers, read-out: pIC50 in the inhibition of STAT5 phosphorylation (converted). How it is done: as §1
The increase in phosphorylation of STAT5 by GM-CSF in monocytes was measured using an anti phospho-STAT5 antibody by FACS.
as §2
10 μg rhGM-CSF (AbCys S.A., Cat N°P300-03) was dissolved in 100 μl of PBS 0.1% BSA to obtain a 100 μg/ml stock solution. The stock solution was stored aliquoted at −80° C.
Control-treated samples received DMSO without any test compound.
as §3
50,000 total events were counted and Phospho-STAT5 positive cells were measured after gating on CD14+ cells.

In assay [3] the target is Recombinant human JAK1 (catalytic domain) (Homo sapiens (Human), UniProt P23458). The assay is described as follows: JAK1 inhibition assay. The conditions noted are these: average ± standard error of the mean; 7 μM ATP. The assay is classed as biochemical. How it is done: After 60 min at room temperature, reactions were stopped by adding 20 μL/well of detection mixture (1× detection buffer (Perkin Elmer, catalog number CR97-100C), 0.5 nM Europium-anti-phosphotyrosine (PT66) (Perkin Elmer, catalog number AD0068), 10 mM EDTA). […] Kinase activity was calculated by subtracting relative fluorescence units (RFU) obtained in the presence of a positive control inhibitor (10 μM staurosporine) from RFU obtained in the presence of vehicle.
Chain of Recombinant human JAK1 (catalytic domain) (P23458 866-1154): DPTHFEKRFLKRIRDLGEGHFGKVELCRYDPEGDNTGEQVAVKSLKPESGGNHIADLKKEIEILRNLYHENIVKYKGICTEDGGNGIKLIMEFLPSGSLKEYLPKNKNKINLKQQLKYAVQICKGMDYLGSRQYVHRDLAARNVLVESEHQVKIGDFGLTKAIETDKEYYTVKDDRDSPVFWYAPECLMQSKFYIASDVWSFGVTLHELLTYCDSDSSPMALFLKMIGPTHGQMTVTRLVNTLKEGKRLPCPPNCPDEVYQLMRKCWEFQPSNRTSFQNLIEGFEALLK
Dose dilution series were prepared for the compounds enabling the testing of dose-response effects in the JAK1 assay and the calculation of the IC50 for the compound. […] The data are expressed as the average IC50 from the assays±standard error of the mean.

Assay [4] relates to HeLa cells, STAT signalling. The assay is described as follows: JAK-STAT signalling assay (pSTAT1(2)-luciferase reporter, OSM trigger). The conditions noted are these: human OSM 33 ng/mL. The assay is classed as cell-based. How it is done: HeLa cells were maintained in Dulbecco's Modified Eagle's Medium (DMEM) containing 10% heat inactivated fetal calf serum, 100 U/mL penicillin and 100 μg/mL streptomycin. HeLa cells were used at 70% confluence for transfection. 20,000 cells in 87 μL cell culture medium were transiently transfected with 40 ng pSTAT1(2)-luciferase reporter (Panomics), 8 ng of LacZ reporter as internal control reporter and 52 ng of pBSK using 0.32 μL Jet-PEI (Polyplus) as transfection reagent per well in 96-well plate format. After overnight incubation at 37° C., 10% CO2, transfection medium was removed. 75 μL of DMEM+1.5% inactivated fetal calf serum was added. 15 μL of compound at 6.7× concentration was added for 60 min and then 10 μL of human OSM (Peprotech) at 33 ng/mL final concentration. […]
40 μL of cell lysate was used to read β-galactosidase activity by adding 180 μL βGal solution (30 μl ONPG 4 mg/mL+150 μL β-Galactosidase buffer (0.06 M Na2HPO4, 0.04 M NaH2PO4, 1 mM MgCl2)) for 20 min. The reaction was stopped by addition of 50 μL Na2CO3 1 M. Absorbance was read at 405 nm
Luciferase activity was measured using 40 μL cell lysate plus 40 μl of Steadylite® as described by the manufacturer (Perkin Elmer), on the Envision (Perkin Elmer). […]

Assay [5] deals with Recombinant human JAK2 (catalytic domain) (Homo sapiens (Human), UniProt O60674). Description: JAK2 inhibition assay. The assay is classed as biochemical. The conditions noted are these: average ± standard error of the mean; 7.5 μM ATP. The procedure: Recombinant human JAK2 (catalytic domain, amino acids 866-1154; catalog number PV4210) was purchased from Invitrogen. 0.0125 mU of JAK2 was incubated with 25 nM Ulight-JAK1(tyr1023) peptide (Perkin Elmer catalog number TRF0121) in kinase reaction buffer (41.66 mM HEPES pH7.0, 0.016% Triton X-100, 12.5 mM MgCl2, 3.33 mM DTT, 7.5 μM ATP) with or without 4 μL containing test compound or vehicle (DMSO, 1% final concentration), in a total volume of 20 μL, in a white 384 Luminotrac 200 plate (Greiner, catalog number 781075). […] Readout is performed using the Envision with excitation at 320nm and measuring emission at 615 nm (Perkin Elmer). Kinase activity was calculated by subtracting relative fluorescence units (RFU) obtained in the presence of a positive control inhibitor (10 μM staurosporine) from RFU obtained in the presence of vehicle. The ability of a test compound to inhibit this activity was determined as: Percentage inhibition=((RFU determined for sample with test compound present−RFU determined for sample with positive control inhibitor) divided by (RFU determined in the presence of vehicle−RFU determined for sample with positive control inhibitor))*100. […]
Chain of Recombinant human JAK2 (catalytic domain) (O60674 849-1124): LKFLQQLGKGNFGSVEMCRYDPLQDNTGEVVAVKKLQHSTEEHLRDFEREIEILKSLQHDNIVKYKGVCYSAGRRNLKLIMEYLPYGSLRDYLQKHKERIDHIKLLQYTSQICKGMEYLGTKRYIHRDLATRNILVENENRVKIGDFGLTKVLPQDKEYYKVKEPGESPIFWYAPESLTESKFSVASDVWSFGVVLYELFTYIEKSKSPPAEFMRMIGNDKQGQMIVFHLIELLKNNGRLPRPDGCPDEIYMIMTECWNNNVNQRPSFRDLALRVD

As to `CC1(C)CN(C(=O)c2ccc(-c3cccc4nc(NC(=O)C5CC5)nn34)cc2)C1` [Compound 1, Cyclopropanecarboxylic acid{5-[4-(3,3-dimethyl-azetidine-1-carbonyl)-phenyl]-[1,2,4]triazolo[1,5-a]pyridin-2-yl}-amide], the IC50 is 245 nM in assay [1] (Homo sapiens, IL-6 stimulation, FACS, CD4+ cells, mean of 3 healthy volunteers, read-out: pIC50 in the inhibition of STAT1 phosphorylation (converted)); 4.27 µM in assay [2]; 6.6 ± 0.7 nM in assay [3]; 67 ± 5 nM in assay [5]. Also, the “selectivity for JAK1 vs. JAK2 (STAT1 vs STAT5)” value in assay [1] (IL-6 pSTAT1 vs GM-CSF pSTAT5, human whole blood FACS) came to 17.6 fold. A half-maximal response in assay [4] (EC50) required 539 ± 130 nM.
